Assay results published in US7329749B2, “Piperazinylcarbonylquinolines and -isoquinolines” (Merck Patent Gesellschaft, priority 2001, dated 2008).

Legend:
Format in all cases: binding
5-HT2A receptor = target: T1, 5-HT2A receptor (Rattus norvegicus, UniProt P14842); experiment: affinity to 5-HT2A receptors, [3H]ketanserine displacement (Example A1)
T1 construct: Frontal rat cortex is homogenised in ice-cold buffer; from tissue; host or cells: rat frontal cortex homogenate
Description: For in-vitro detection of the affinity to 5-HT2A receptors, the following test (Example A1), for example, can be used. The 5-HT2A receptors are exposed both to [^3H]ketanserine (a substance which is known for its affinity to the receptor) and also to the test compound. The decrease in the affinity of [^3H]ketanserine to the receptor is an indication of the affinity of the test substance to the 5-HT2A receptor. The detection is carried out analogously to the description by J. E. Leysen et al., Molecular Pharmacology, 1982, 21: 301-314, or as also described, for example, in EP 0320983.
Preparation of a suspension of 5-HT2A receptors: Frontal rat cortex is homogenised in ice-cold buffer. The homogenate is centrifuged at 4° C. and 50,000×for 10 minutes. The pellet is re-suspended in 2.5 ml of ice-cold tris buffer, made up with 10 ml of additional buffer and centrifuged as described. The pellet is then re-suspended in buffer and diluted to give a homogenate which comprises 60 mg of material/ml. 0.1 ml of the suspension, 100 μl of a 5 nM solution of [^3H]ketanserine, 100 μl of a solution of the test compound (concentration in the range from 10^−5 to 10^−10 mol per litre) are introduced into the incubation tubes and made up to 1 ml with buffer. The tubes are incubated at 37° C. for 15 minutes. […] The filters are analysed by liquid scintillation spectrometry in 8 ml of Triton-X scintillator liquid.

5-HT2C receptor = 5-HT2C receptor (Homo sapiens, UniProt P28335); experiment: IC50 at the 5-HT2C receptor
Chain of 5-HT2C receptor (P28335 33-458): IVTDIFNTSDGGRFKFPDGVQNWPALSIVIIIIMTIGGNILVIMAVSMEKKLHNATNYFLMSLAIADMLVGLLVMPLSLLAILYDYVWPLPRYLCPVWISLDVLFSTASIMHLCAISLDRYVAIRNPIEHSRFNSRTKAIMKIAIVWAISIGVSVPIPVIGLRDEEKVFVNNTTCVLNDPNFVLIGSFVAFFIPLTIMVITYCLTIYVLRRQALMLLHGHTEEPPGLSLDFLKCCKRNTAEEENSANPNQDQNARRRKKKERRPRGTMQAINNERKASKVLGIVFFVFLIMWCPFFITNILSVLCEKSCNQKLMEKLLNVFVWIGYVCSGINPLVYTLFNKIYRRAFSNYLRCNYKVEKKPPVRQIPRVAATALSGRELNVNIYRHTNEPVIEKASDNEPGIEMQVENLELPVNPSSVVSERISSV

5-HT1A receptor = target: T2, 5-HT1A receptor (Homo sapiens, UniProt P08908); experiment: IC50 at the 5-HT1A receptor
T2 sequence (P08908 1-422): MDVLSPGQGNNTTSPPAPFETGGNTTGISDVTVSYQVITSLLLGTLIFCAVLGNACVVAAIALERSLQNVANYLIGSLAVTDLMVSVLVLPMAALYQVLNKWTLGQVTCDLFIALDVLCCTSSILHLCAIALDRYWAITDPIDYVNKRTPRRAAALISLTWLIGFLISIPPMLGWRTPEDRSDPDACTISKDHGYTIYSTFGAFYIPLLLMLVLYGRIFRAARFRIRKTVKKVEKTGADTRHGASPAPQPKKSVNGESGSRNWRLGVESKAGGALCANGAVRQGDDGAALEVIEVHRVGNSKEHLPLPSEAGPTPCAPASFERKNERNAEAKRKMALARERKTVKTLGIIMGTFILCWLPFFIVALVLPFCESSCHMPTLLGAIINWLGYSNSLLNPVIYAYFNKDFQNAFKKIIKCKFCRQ

5-HT1B receptor = 5-HT1B receptor (Homo sapiens, UniProt P28222); experiment: IC50 at the 5-HT1B receptor
Chain of 5-HT1B receptor (P28222 whole entry): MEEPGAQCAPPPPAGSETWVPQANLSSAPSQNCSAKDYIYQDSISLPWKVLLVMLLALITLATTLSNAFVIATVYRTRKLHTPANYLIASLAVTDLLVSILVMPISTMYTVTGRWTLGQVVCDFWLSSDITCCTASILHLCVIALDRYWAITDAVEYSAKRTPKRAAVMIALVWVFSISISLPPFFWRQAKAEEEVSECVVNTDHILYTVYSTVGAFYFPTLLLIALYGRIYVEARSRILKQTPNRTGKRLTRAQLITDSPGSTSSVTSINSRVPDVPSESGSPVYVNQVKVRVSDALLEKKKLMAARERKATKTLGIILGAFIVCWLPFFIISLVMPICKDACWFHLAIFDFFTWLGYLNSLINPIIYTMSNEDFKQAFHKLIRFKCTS

5-HT1D receptor = 5-HT1D receptor (Homo sapiens, UniProt P28221); experiment: IC50 at the 5-HT1D receptor
Chain of 5-HT1D receptor (P28221 whole entry): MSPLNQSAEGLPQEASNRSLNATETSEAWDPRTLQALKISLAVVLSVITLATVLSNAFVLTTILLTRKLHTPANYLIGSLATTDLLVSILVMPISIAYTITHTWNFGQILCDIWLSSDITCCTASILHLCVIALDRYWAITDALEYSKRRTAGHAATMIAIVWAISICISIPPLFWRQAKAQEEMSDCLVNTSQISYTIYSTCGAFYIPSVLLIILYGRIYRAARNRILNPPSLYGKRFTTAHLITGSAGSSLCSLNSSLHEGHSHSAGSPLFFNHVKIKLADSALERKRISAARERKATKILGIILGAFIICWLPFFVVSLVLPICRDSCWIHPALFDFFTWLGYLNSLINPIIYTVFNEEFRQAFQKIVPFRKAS

D2 receptor = D2 receptor (Homo sapiens, UniProt P14416); experiment: IC50 at the D2 receptor
Chain of D2 receptor (P14416 whole entry): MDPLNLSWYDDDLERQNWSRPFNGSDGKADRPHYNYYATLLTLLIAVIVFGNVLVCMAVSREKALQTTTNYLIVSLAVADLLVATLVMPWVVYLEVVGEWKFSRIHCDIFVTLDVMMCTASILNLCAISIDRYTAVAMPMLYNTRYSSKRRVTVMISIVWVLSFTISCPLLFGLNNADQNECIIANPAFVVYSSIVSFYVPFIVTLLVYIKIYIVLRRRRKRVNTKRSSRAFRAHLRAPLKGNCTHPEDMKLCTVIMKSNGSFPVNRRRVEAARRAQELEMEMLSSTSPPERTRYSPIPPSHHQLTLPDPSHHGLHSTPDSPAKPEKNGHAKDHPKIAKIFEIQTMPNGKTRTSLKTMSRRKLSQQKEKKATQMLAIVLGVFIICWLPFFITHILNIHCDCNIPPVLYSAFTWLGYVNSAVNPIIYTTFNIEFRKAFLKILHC

T1 sequence (P14842 whole entry): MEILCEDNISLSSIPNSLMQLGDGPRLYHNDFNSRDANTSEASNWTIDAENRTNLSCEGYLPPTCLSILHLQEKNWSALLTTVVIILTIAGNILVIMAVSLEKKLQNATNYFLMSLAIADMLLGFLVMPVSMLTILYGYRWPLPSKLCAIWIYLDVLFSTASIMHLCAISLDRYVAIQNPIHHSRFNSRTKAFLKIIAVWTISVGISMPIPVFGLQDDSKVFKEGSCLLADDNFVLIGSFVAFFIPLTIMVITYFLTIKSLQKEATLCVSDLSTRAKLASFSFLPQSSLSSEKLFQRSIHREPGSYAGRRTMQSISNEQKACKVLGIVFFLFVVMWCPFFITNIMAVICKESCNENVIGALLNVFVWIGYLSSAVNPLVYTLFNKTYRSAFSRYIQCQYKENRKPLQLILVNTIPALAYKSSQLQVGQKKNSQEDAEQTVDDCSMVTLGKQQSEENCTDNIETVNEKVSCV

**Q.** Which IC50 (5-HT2A receptor) does the source give for `O=C(c1nccc2ccccc12)N1CCN(CCc2ccc(F)cc2)CC1` [Example 1, {4-[2-(4-fluorophenyl)ethyl]piperazin-1-yl}isoquinolin-1-ylmethanone] here?
**A.** 1 nM

**Q.** And the “factor by which the affinities differ” value (5-HT2A receptor; 5-HT2A versus 5-HT2C, 5-HT1A, 5-HT1B, 5-HT1D and D2 receptors)?
**A.** greater than 1000

**Q.** What about the IC50 (5-HT2C receptor) of the same molecule?
**A.** > 1000 nM

**Q.** What about the IC50 (5-HT1A receptor) of the same molecule?
**A.** > 1000 nM

**Q.** What about the IC50 (5-HT1B receptor) of the same molecule?
**A.** > 1000 nM

**Q.** What about the IC50 (5-HT1D receptor) of the same molecule?
**A.** > 1000 nM

**Q.** What about the IC50 (D2 receptor) of the same molecule?
**A.** > 1000 nM
